Data on 4 compounds can be found in PMC11020070, “Discovery of Protease-Activated Receptor 4 (PAR4)-Tethered Ligand Antagonists Using Ultralarge Virtual Screening” (ACS Pharmacology & Translational Science, 2024).

One data set has as its target T1, PAR4 (Homo sapiens, UniProt Q96RI0).
T1 sequence (Q96RI0 18-385): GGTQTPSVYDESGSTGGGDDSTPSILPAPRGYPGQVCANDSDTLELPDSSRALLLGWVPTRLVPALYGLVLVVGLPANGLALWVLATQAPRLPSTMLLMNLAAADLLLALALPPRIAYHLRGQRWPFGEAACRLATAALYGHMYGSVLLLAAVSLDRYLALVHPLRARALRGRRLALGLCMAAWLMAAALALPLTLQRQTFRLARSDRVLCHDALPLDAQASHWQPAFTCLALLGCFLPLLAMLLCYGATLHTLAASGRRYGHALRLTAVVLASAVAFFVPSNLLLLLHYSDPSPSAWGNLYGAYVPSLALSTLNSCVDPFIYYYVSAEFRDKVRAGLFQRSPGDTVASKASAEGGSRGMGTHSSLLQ
Nature of the data set: PAR4 component of α-thrombin activation (α-thrombin + vorapaxar) in human platelets. Format: cell-based. Set-up: endogenous in cells; host or cells: platelets. Particulars: for IC50: α-thrombin + vorapaxar, read-out: PAR4 IC50 (Figure 6D). The method, then:
Figure 5 (A) Off-target controls: % of vehicle control for γ-thrombin (100 nM), PAR4 component of α-thrombin (5 nM α-thrombin +1 μM vorapaxar), PAR4 agonist peptide 200 μM AYPGKF, 200 μM PAR1 agonist peptide SFLLRN, and GPVI agonist convulxin 3.16 nM.
Figure 6 (A) Distribution of IC50 values for the inhibition of human PAR4 vs mouse PAR4. Red indicates the 2 compounds highlighted in panels (B–D). (B) Structures of exemplar compounds. (C) Concentration–response curves for human vs mouse PAR4. (D) Concentration–response curves for the inhibition of pharmacologically defined α-thrombin components for PAR1 (α-thrombin + BMS-3) vs PAR4 (α-thrombin + vorapaxar).
α-thrombin activates both PAR1 and PAR4, and the individual PAR1 or PAR4 component can be isolated pharmacologically. […] With 20 substitutions between PAR1 and PAR4 within 5 Å of the predicted 31 binding site, the basis for these selectivity differences is not known (Figure S4). As we continue to probe for a selective PAR4 antagonist, mutagenesis of individual residues will be conducted.
Compounds were screened for inhibition activity against human PAR4 using 100 nM γ-thrombin or 200 μM PAR4-AP in a single-point assay (10 μM test compound). Dose–response curves were conducted for active compounds. Active compounds were also assessed at a single concentration of 10 μM against other agonists, including the PAR4 component of α-thrombin (5 nM α-thrombin +1 μM vorapaxar), the PAR1 agonist peptide (20 μM SFFLRN), and the GPVI receptor agonist convulxin (3 nM).

Data set [1] in a line: Microsomal stability, mouse liver microsomes. Format: in vitro ADME. Particulars: for CLint scaled at 1 µM: pH 7.4, mouse liver microsomes, in vitro, reaction started with NADPH; for mouse CLhep: predicted hepatic clearance from mouse liver microsomes. On the procedure: The metabolic stability of each compound was investigated in mouse and human hepatic microsomes using substrate depletion methodology (% parent compound remaining). Prior to use, microsomes were removed from the freezer and allowed to thaw in a 37 °C water bath before being placed on wet ice.
In separate 96-well plates for each time point, a mixture of 0.1 M potassium phosphate-buffered (pH 7.4), 3 mM MgCl2, and 2.5 mg/mL microsomes were prewarmed at 37 °C for 5 min. Following the preincubation, a 1 μM test compound and 1 mM NADPH (for 3, 7, 15, 25, or 45 min time points) or buffer (for 0 min time point) were added to initiate the reaction. Under standard conditions, reactions were initiated with the addition of NADPH. To delineate the contribution of esterases, some experiments were initiated by the addition of substrate in the presence or absence of NADPH. Plates were incubated at 37 °C under ambient oxygenation. At the respective times, each plate’s reaction was precipitated by the addition of 2 volumes of ice-cold acetonitrile containing an internal standard (carbamazepine, 50 nM). The plates were centrifuged at 4000 rcf (4 °C) for 5 min. The resulting supernatants were transferred and diluted 1:1 (supernatant:water) into new 96-well plates in preparation for LC/MS/MS analysis. Each compound was assayed in triplicate within the same 96-well plate. The in vitro half-life (t1/2, min, eq 1), intrinsic clearance (CLint, mL/min/kg, eq 2), and subsequent predicted hepatic clearance (CLhep, mL/min/kg, eq 3) were determined employing the following equations [drawing 1] 1 [drawing 2] 2 [drawing 3] 3 The estimated percent contribution to metabolism was calculated from the percent substrate lost plots generated from metabolic incubations initiated with the addition of a test compound. Calculations compared the area under the curve (AUC) from conditions in the presence and absence of NADPH and buffer-only (control) conditions (eqs 4 and 5). AUC was calculated by using the trapezoidal method [drawing 4] 4 [drawing 5] 5
The analysis of in vitro samples from microsomal stability or plasma protein binding experiments was determined by employing LCMS/MS with an electrospray ionization-enabled 5500 Sciex instrument (Sciex, Foster City, CA) that was coupled to Agilent HPLC pumps and an autosampler (Agilent Technologies, Santa Clara, CA). Analytes were separated by gradient elution using a Kinetex C18 column (2.1 mm × 50 mm, 5 μm; Phenomenex, Torrance, CA) warmed to 35 °C. Mobile phase A was 0.5% formic acid in water, and mobile phase B was 0.5% formic acid in acetonitrile. […] The total run time was 2.8 min, and the HPLC flow rate was 0.5 mL/min. Mass spectral analyses were performed using multiple reaction monitoring, with transitions and voltages specific for each analyte using a Turbo Ion Spray source (source temperature of 500 °C) in positive ionization mode (5.0 kV spray voltage). Multiple reaction monitoring transitions were the following: 6110B8 (m/z 345.02 → 149.03, DP = 31; EP = 10; CE = 37 and CXP = 14), 6G3R (m/z 421.06 → 225.12, DP = 91; EP = 10; CE = 39 and CXP = 12), 5D22 (m/z 309.068 → 211.16, DP = 131; EP = 10; CE = 29 and CXP = 12), and carbamazepine (m/z 237 → 194, DP = 96; EP = 10; CE = 25 and CXP = 8). Data were analyzed using OS Sciex Analyst 1.5.1 (SCIEX, Framingham, MA), Graphpad Prism 10.1.0 (GraphPad Software, Boston, Massachusetts), and Microsoft Excel version 2310 (Microsoft, Redmond, WA).

With `Cc1nc(NC(=O)c2cc(-c3ccccc3)n(-c3ccccc3)n2)n[nH]1` [Compound 7], on PAR4 (10 μM compound, 5 nM α-thrombin + 1 μM vorapaxar), the “inhibition of PAR4 component of α-thrombin activation” value is “did inhibit”.
As to `O=C(Nc1nc[nH]n1)c1nn(-c2ccccc2)c2c1CCC2` [Compound 17], in data set [1], the CLint scaled at 1 µM is 2440 mL/min/kg and the “mouse CLhep” value is listed as 86.8 mL/min/kg.
Turning to `Cn1nc(C(=O)Nc2n[nH]c(-c3c(F)cccc3F)n2)cc1C1CC1` [Compound 12], in data set [1], the CLint scaled at 1 µM was 11500 mL/min/kg and the “mouse CLhep” value is listed as 89.3 mL/min/kg. Moreover, the IC50 on PAR4 turned out to be 149 nM.
Taken in the same sequence, the figures for `O=C(Nc1n[nH]c(-c2ccc(F)cc2F)n1)c1nn(-c2ccccc2)c2c1CCCC2` [Compound 31] were 19900 mL/min/kg, 89.6 mL/min/kg and 163 nM.

A word on the CLint scaled: it is a measure of how fast metabolising enzymes remove a compound, apart from limits set by blood flow. A low value points to greater metabolic stability. For orientation: IC50 means the concentration needed to halve the response being measured.
